Read-outs that look alike come from different tables or passages of the source. Residues, ends and D or L forms follow the SMILES beside them.
How the values were obtained:
Jag1-Notch1 signalling = assay: Co-culture Notch luciferase reporter assay, Jag1-induced; type: cell-based, human; settings: for inhibition of Jag1-induced Notch1 signalling, dose response: reporter assay, DAPT 50 μM; for inhibition of Jag1-induced Notch signaling compared with N1: peptides 25 μM
Procedure: Jag1-Notch interaction is measured using a co-culture assay with one cell line expressing the Notch ligand Jagged1 (Jag1) and a second expressing Notch (either Notch1 or Notch2). A firefly luciferase reporter plasmid with 12 upstream CBF-1 binding site was transfected into signalling-receiving cells to report on Notch signalling (FIG. 1D). Peptides were tested for their activity in inhibiting Jag1-induced Notch signalling. Complete inhibition is equivalent to the background signal seen without induction (−Jag1). […] N1 (SEQ ID NO: 10) is a 15-mer derived from the EGF-like repeat 12 of Notch1 (C467-G481). This is consistent with the structural information that EGF-like repeat 12 of Notch1 is near the MNNL domain of Jag1 (FIGS. 1B and C).
(§1) Specificity of N1 (SEQ ID NO: 10) peptide in inhibiting different Notch ligand-induced Notch signaling was investigated using in vitro co-culture assay. HEK293T or CHO cells expressing Notch ligand (either Jag1, DLL1 or DLL4) are co-cultured with Notch1- or Notch2-expressing cells. Notch1 and Notch2 signalling can be measured by either luciferase reporter assay or by the formation of NICD1 and NICD2. […] Half inhibition is reached at between 50 to 100 μM. […] This contrasts with DAPT which affects all the above interactions.
(§2) HEK-293T-Jagged-1 cells were seeded in 24-well plates in triplicate per sample group, and human HCT-116 cells were seeded in one 60 mm dish. Cells were allowed to settle, and were transfected the following day after the medium was changed to be antibiotic free. HCT-116 cells were transfected with 12×CSL-Luc and Renilla-Luc, using Lipofectamine® 3000 (Invitrogen™), according to the manufacturer's instructions. After 24 hours, HCT-116 cells were scraped and 2.5×10^4 cells in 1 mL complete medium per well were added to both 24-well plates. Peptides were treated to cells with the desired concentrations. N—[N-(3,5-difluorophenacetyl)-L-alanyl]-S-phenylglycine t-butyl ester (DAPT) was used as positive control. Cells were co-cultured for 12 hours before measure the luciferase activity. After incubation, cells were lysed with luciferase lysis buffer. Notch activity in cells expressing the 12×CSL-Luc reporter construct was measured by a luciferase assay using Dual-Luciferase® Reporter Assay System (Promega).

NICD2 = assay: Co-culture assay, NICD2 formation (Jag1-Notch2); type: cell-based, human
Procedure: as §1
(§3) The cleaved Notch1 (Val1744) (D3B8) rabbit monoclonal antibody (CST) and Notch2 (Cleaved Ala1734) rabbit monoclonal antibody at 1:1000 dilution were used to detect human Notch intracellular domain (NICD1) and Notch2 intracellular domain (NICD2), respectively. β-actin was detected using a mouse monoclonal antibody (Santa Cruz Biotechnology) at 1:3000 dilution.

DLL4-Notch1 signalling = assay: Co-culture Notch luciferase reporter assay, DLL4-induced; type: cell-based, human; settings: DAPT 50 μM
Procedure: as §1, §2

S1-M1-80 cells [1] = assay: Clonogenicity assay, S1-M1-80; type: cell-based, human; settings: for colony formation, combination with TPT: S1-M1-80, combined with 1 μM of TPT (DAPT 1 μM)
Procedure: The procedure for colony formation assay consists of following steps. An appropriate number of cells per well were seeded on a 6-well plate in duplicate. The number of cells for seeding should be related to the aggressiveness of the treatment. The cells were incubated for 12 hours in a CO2 incubator at 37° C. and allow cells to attach to the plate. The cells were treated with peptides or (DAPT) to required concentrations. The cells were incubated in a in a CO2 incubator at 37° C. for about 10 days until cells in control well have formed colonies which are of a substantially good size (the minimum score is 100 cells per colony). After the incubation, the medium was removed and cells were rinsed with 5 ml 1×PBS (phosphate buffered saline. pH 7.2). The cells were then fixed with 1 ml methanol at room temperature for 10 min. After fixation, the cells were stained with 0.5% crystal violet solution and incubated at room temperature for 1 h. After staining, the plates were immersed in deionized water to rinse off crystal violet and air-dried at room temperature for overnight. The dry plates were pictured with scanner. The number of colonies in each well was counted by cell counter software.

Jag1-induced NICD1 = assay: Co-culture assay, Jag1-induced NICD1 level; type: cell-based, human; settings: N1 at 50 μM
Procedure: as §1, §3

DLL1-induced NICD1 = assay: Co-culture assay, DLL1-induced NICD1 level; type: cell-based, human
Procedure: as §1, §3

NICD1 [2] = assay: NICD1 formation in HCT-116; type: cell-based, human; settings: peptides 100 μM
Procedure: (§4) This panel of peptides was also tested for their cytotoxic activities against two human colorectal cell lines (HCT-116 and HCT-15). At a concentration of 100 μM, N1 (SEQ ID NO: 10) is the only peptide that is cytotoxic to HCT-116 and HCT-15 cells (FIGS. 2B and C). Notch signaling results in the release of NICD1 from the membrane-bound Notch receptor.
as §3

DLL4-induced NICD1 = assay: Co-culture assay, DLL4-induced NICD1 level; type: cell-based, human
Procedure: as §1, §3

NICD1 [3] = assay: NICD1 formation in HCT-15; type: cell-based, human; settings: peptides 100 μM
Procedure: as §4, §3

DLL1-Notch1 signalling = assay: Co-culture Notch luciferase reporter assay, DLL1-induced; type: cell-based, human; settings: DAPT 50 μM
Procedure: as §1, §2

S1-M1-80 cells [4] = assay: cells; type: cell-based, human
Procedure: (§5) HCT-116, HCT-15, S1-M1-80, S1, L929, HEK293T-Jagged-1 were seeded in each well of a 96-well plate with a series of concentrations (a serial dilution from 1000μM to 0.5 μM) of peptides or drugs including DAPT, Topotecan at 37° C. with 5% CO2 in a humidified incubator for 3 days. Percentage of survival was determined by MTS assay as described.

S1 = assay: cells; type: cell-based, human
Procedure: as §5

HEK-293T-Jagged-1 cells = type: cell-based, human
Procedure: as §5

in vitro = type: cell-based; settings: mouse
Procedure: as §5

NICD1 [5] = assay: NICD1 formation in S1-M1-80; type: cell-based, human; settings: 10 μM
Excerpt: as §3

Row | Structure (SMILES) | inhibition of Jag1-induced Notch1 signalling, dose response (Jag1-Notch1 signalling) | inhibition of DLL4-Notch1 signalling (DLL4-Notch1 signalling) | colony formation, combination with TPT (S1-M1-80 cells [1]) | colony formation (S1-M1-80 cells [1]; S1-M1-80, single agent 10 μM) | Jag1-induced NICD1 level (Jag1-induced NICD1) | inhibition of DLL1-Notch1 signalling (DLL1-Notch1 signalling) | IC50 (HEK-293T-Jagged-1 cells) | IC50 at 3 days (in vitro) | IC50 (S1-M1-80 cells [4]) | inhibition of Jag1-induced Notch signaling compared with N1 (Jag1-Notch1 signalling) | IC50 (S1) | other results
1 | C[C@H](NC(=O)Cc1cc(F)cc(F)c1)C(=O)N[C@H](C(=O)OC(C)(C)C)c1ccccc1 [DAPT, N—[N-(3,5-Difluorophenacetyl)-L-alanyl]-S-phenylglycine t-butyl ester, reference compound] | can inhibit all signaling | can inhibit all signaling | 1074 colonies/well | 717 colonies/well | equally effective in inhibiting both NICD1 and NICD2 | can inhibit all signaling | – | – | – | – | – | NICD2 formation (NICD2): equally effective in inhibiting both NICD1 and NICD2; DLL1-induced NICD1 level (DLL1-induced NICD1): can inhibit both; NICD1 formation in HCT-116 (NICD1 [2]): almost complete elimination of NICD1; DLL4-induced NICD1 level (DLL4-induced NICD1): can inhibit both; NICD1 formation in HCT-15 (NICD1 [3]): almost complete elimination of NICD1; IC50 (S1-M1-80 cells [4]; S1-M1-80 cells, 3 days, MTS, read-out: IC50 (μM) s1-m1-80): 17.1 ± 0.4 µM; IC50 (S1; S1 cells, 3 days, MTS, read-out: IC50 (μM) S1): > 100 µM
2 | CC[C@H](C)[C@H](NC(=O)[C@H](CCC(N)=O)NC(=O)[C@H](CC(=O)O)NC(=O)[C@H](CC(C)C)NC(=O)[C@H](CS)NC(=O)[C@@H](N)Cc1c[nH]c2ccccc12)C(=O)NCC(=O)N[C@@H](CCC(=O)O)C(=O)N[C@@H](Cc1ccccc1)C(=O)N[C@@H](CCC(N)=O)C(=O)N[C@@H](CS)C(=O)N[C@H](C(=O)N[C@@H](CS)C(=O)N[C@@H](CCC(=O)O)C(=O)O)[C@@H](C)CC [N102T466W-M479E, WCLDQIGEFQCICE] (H-WCLDQIGEFQCICE-OH; N-terminus and C-terminus assumed) | – | – | – | – | – | – | > 100 µM | > 100 µM | 54.3 ± 5.2 µM | – | – | –
3 | CC[C@H](C)[C@H](NC(=O)[C@H](CCC(N)=O)NC(=O)[C@H](CC(=O)O)NC(=O)[C@H](CC(C)C)NC(=O)[C@H](CS)NC(=O)[C@@H](N)Cc1ccc(O)cc1)C(=O)NCC(=O)N[C@@H](CCC(=O)O)C(=O)N[C@@H](Cc1ccccc1)C(=O)N[C@@H](CCC(N)=O)C(=O)N[C@@H](CS)C(=O)N[C@H](C(=O)N[C@@H](CS)C(=O)N[C@@H](CCC(=O)O)C(=O)O)[C@@H](C)CC [N102T466Y-M479E, YCLDQIGEFQCICE] (H-YCLDQIGEFQCICE-OH; N-terminus and C-terminus assumed) | – | – | – | – | – | – | > 100 µM | > 100 µM | 14.9 ± 4.8 µM | – | – | –
4 | CC[C@H](C)[C@H](NC(=O)[C@H](CCC(N)=O)NC(=O)[C@H](CC(=O)O)NC(=O)[C@H](CC(C)C)NC(=O)[C@@H](N)CS)C(=O)NCC(=O)N[C@@H](CCC(=O)O)C(=O)N[C@@H](Cc1ccccc1)C(=O)N[C@@H](CCC(N)=O)C(=O)N[C@@H](CS)C(=O)N[C@H](C(=O)N[C@@H](CS)C(=O)N[C@@H](CC(=O)O)C(=O)O)[C@@H](C)CC [Peptide N102M479D, CLDQIGEFQCICD] (H-CLDQIGEFQCICD-OH; N-terminus and C-terminus assumed) | inhibited Jag1-induced Notch1 signaling in dose dependent manner | did not interfere | – | – | significantly decreased expression level of NICD1 | did not interfere | > 100 µM | > 100 µM | 5.8 ± 0.2 µM | biggest improvement | > 50 µM | –
5 | CC[C@H](C)[C@H](NC(=O)[C@H](CCC(N)=O)NC(=O)[C@H](CC(=O)O)NC(=O)[C@H](CC(C)C)NC(=O)[C@@H](N)CS)C(=O)NCC(=O)N[C@@H](CCC(=O)O)C(=O)N[C@@H](Cc1ccccc1)C(=O)N[C@@H](CCC(N)=O)C(=O)N[C@@H](CS)C(=O)N[C@H](C(=O)N[C@@H](CS)C(=O)N[C@@H](CCC(=O)O)C(=O)O)[C@@H](C)CC [Peptide N102M479E, CLDQIGEFQCICE] (H-CLDQIGEFQCICE-OH; N-terminus and C-terminus assumed) | inhibited Jag1-induced Notch1 signaling in dose dependent manner | did not interfere | 581 colonies/well | 84 colonies/well | significantly decreased expression level of NICD1 | did not interfere | > 100 µM | > 100 µM | 4.9 ± 0.2 µM | biggest improvement | > 30 µM | NICD1 formation in S1-M1-80 cells (NICD1 [5]): totally suppress NICD1 formation; colony formation of S1-M1-80, dose response (S1-M1-80 cells [1]): effectively reduced colony formation; colony formation of S1-M1-80 (S1-M1-80 cells [1]; 1 μM): reduced by half; more potent than DAPT (colony formation) (S1-M1-80 cells [1]; 1 μM): 14%; colony formation of S1-M1-80 (S1-M1-80 cells [1]; 5 μM): almost eliminated the formation of all colonies; colony formation of S1-M1-80 (S1-M1-80 cells [1]; 10 μM): completely eliminated the formation of colonies; colony formation (S1-M1-80 cells [1]; S1-M1-80, single agent 1 μM): 925 colonies/well; effect with topotecan on colony formation of S1-M1-80 (S1-M1-80 cells [1]; TPT plus N102M479E): synergistic; increase of potency over TPT-DAPT combination (colony formation) (S1-M1-80 cells [1]; combined with 1 μM of TPT): 19%

Source: patent US11117932B2, “Peptides for specific inhibition of Jag 1-Notch 1 pathway” (The Hong Kong Polytechnic University, priority 2018, dated 2021)
